Reference: patent US8388939B2, “Moisturizing cosmetic composition comprising a combination of homarine and erythritol” (Sederma, S.A.S., priority 2008, dated 2013)

System: Human keratinocytes
Assay: Synergistic osmo-protective activity of homarine and erythritol after NaCl hyper-osmotic stress; UPTIBLUE cell count
Assay type: cell-based
Procedure: Human kerotinocytes were cultured for 24 h in a culture medium (DMEMc+FCS) than incubated until confluence was obtained. At this stage, the cells were putted in pre-contact with the compounds for 24 h. The day after, a 5h NaCl stress in the presence of the compounds was applied to the cells in the DMEMc medium (without FCS, with BSA) containing 150 mM of NaCl. After this stress, cells were rinced and were recovered with or without the compounds to be tested in the same medium as before (T0). Recovery was estimated at long term by measuring the survival at T5 days and at T7 days after the beginning of the stress (T0). The compounds were tested at the following concentrations: erythritol 0.6%, homarine 0.006% (corresponding to 1×) and homarine 0.06% (corresponding to 10×).
The UPTIBLUE technic was used to visualize and quantify the cell number after the hyper-osmotic shock and the osmo-protective effect of the compound was thus evaluated.

| Compound | Osmo-protective effect with regards a hyper-osmotic stress, in words (5 and 7 days after hyper-osmotic shock) | % of change in cell count versus control (post-stress) (T0, homarine 0.006% (1x), erythritol 0.6% where combined) | % of change in cell count versus control (post-stress) (T0, homarine 0.06% (10x), erythritol 0.6% where combined) | % of change in cell count versus control (post-stress) (T5 days, homarine 0.006% (1x), erythritol 0.6% where combined) | % of change in cell count versus control (post-stress) (T5 days, homarine 0.06% (10x), erythritol 0.6% where combined) | % of change in cell count versus control (post-stress) (T7 days, homarine 0.006% (1x), erythritol 0.6% where combined) | % of change in cell count versus control (post-stress) (T7 days, homarine 0.06% (10x), erythritol 0.6% where combined) | % of change in cell count versus control (post-stress) (T0, erythritol 0.6% alone) [%] | % of change in cell count versus control (post-stress) (T5 days, erythritol 0.6% alone) | % of change in cell count versus control (post-stress) (T7 days, erythritol 0.6% alone) |
| --- | --- | --- | --- | --- | --- | --- | --- | --- | --- | --- |
| C[n+]1ccccc1C(=O)[O-] [Homarine] | dose dependant | +10% | +14% | +33% | +93% | +26% | +130% |  |  |  |
| OC[C@@H](O)[C@@H](O)CO [Erythritol] |  |  |  |  |  |  |  | −8 | +39% | +62% |
